In brackets after ≈: the same amount, converted by molar mass.
Experiments:
[1] = system: 3T3 cells; experiment: Cell growth inhibition bioassay (sulforhodamine B); type: cell-based, mouse; conditions: Mus musculus, NIH3T3; 48 h, SRB; read-out: GI50 in indicated cell line: 3T3
Outline: (§1)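 Cells were exposed to compound alongside matched solvent controls, then stained with sulforhodamine B. Percent growth inhibition was calculated from dye absorbance against the control.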

[2] = system: DU145 cells; experiment: Cell growth inhibition bioassay (sulforhodamine B); type: cell-based, human; conditions: Homo sapiens, DU-145; 48 h, SRB; read-out: GI50 in indicated cell line: DU145
Outline: (§2)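 SRB colorimetric read-out; % growth inhibition vs solvent control. Human lines: MCF-7 (breast adenocarcinoma), DU145 (prostate carcinoma), PC3 (prostate adenocarcinoma), H460 (large cell lung cancer).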

[3] = system: H460 cells; experiment: Cell growth inhibition bioassay (sulforhodamine B); type: cell-based, human; conditions: Homo sapiens, NCI-H460; 48 h, SRB; read-out: GI50 in indicated cell line: H460
Outline: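 Human cancer cells (MCF-7 breast, DU145 and PC3 prostate, H460 large cell lung) were treated with compounds. Growth relative to solvent control was quantified by SRB protein stain.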

[4] = system: HT-29 cells; experiment: Cell growth inhibition bioassay (sulforhodamine B); type: cell-based, human; conditions: Homo sapiens, HT-29; 48 h, SRB; read-out: GI50 in indicated cell line: HT-29
Outline: as §1

[5] = system: K562 cells; experiment: Cell growth inhibition bioassay (sulforhodamine B); type: cell-based, human; conditions: Homo sapiens, K562; 48 h, SRB; read-out: GI50 in indicated cell line: K562
Outline: as §1

[6] = system: M-14 cells; experiment: Cell growth inhibition bioassay (sulforhodamine B); type: cell-based, human; conditions: Homo sapiens, M14; 48 h, SRB; read-out: GI50 in indicated cell line: M-14
Outline: as §1

[7] = system: MCF-7 cells; experiment: Cell growth inhibition bioassay (sulforhodamine B); type: cell-based, human; conditions: Homo sapiens, MCF7; 48 h, SRB; read-out: GI50 in indicated cell line: MCF-7
Outline: as §2

[8] = system: M. tuberculosis H37Rv; experiment: Conventional aerobic (MABA) culture assay, luminescence MIC; type: cell-based, Mycobacterium tuberculosis
[9] = system: axenic amastigotes of L. amazonensis (strain MHOM/BR/76/LTB-012); conditions: Table 8b
[10] = Cytotoxicity VERO cell (Table 6); conditions: African green monkey, VERO cells
[11] = system: axenic amastigotes of L. amazonensis (strain MHOM/BR/76/LTB-012); experiment: microbe, parasite or virus in culture; conditions: Leishmania amazonensis, read-out: L. amazonensis IC50
[12] = Cytotoxicity on VERO cells (MTT), anti-T. cruzi study; conditions: African green monkey, VERO cells, Cytotoxicity VERO Lab B, Lab B
[13] = system: L. braziliensis PER006; experiment: Activity against macrophages infected with Leishmania amastigotes; conditions: Leishmania braziliensis, Macrophage, read-out: IC50 L. braziliensis PER006
Experimental: A cloned line of Leishmania amazonensis(strain MHOM/BR/76/LTB-012) was used in all experiments. Axenically grown amastigote forms of L. amazonensis were maintained by weekly subpassages in MAA/20 medium (Sereno and Lemesre, Antimicrobial Agents and Chemotherapy 41, 972-976 (1997)) at 32±1° C. in 25 cm^2 tissue culture flasks. L. peruviana (strain MHOM/PE/LCA08) and L. braziliensis (strainMHOM/PE/PER006) were maintained in the promastigote stage in a biphasic medium (blood agar with 0.89% NaCl, pH 7.4) at 24° C., with sub-passage every 3 to 4 days. Promastigotes (5×10^6 parasites) were then transferred to 25 cm2 tissue culture flasks containing 5 ml of M199 medium supplemented with 10% foetal bovine serum (FBS), pH 7.4. After 4 days, exponential phase promastigotes were centrifuged for 10 minutes at 1500 g and 4° C. The supernatant was discarded and replaced by fresh M199 medium supplemented with 20% FBS, pH 5.5. Axenic amastigotes transformation was then induced by increasing the temperature to 34° C. and incubating for 96 h (Teixeira et al., Parasitology Research 88, 963-968 (2002)).
Extracted cells were immediately deposited on sterile 4×4 mm cover glasses and placed in each well of a 96-well plate. Plates were incubated for 24 h at 37° C., 5% CO2 to allow cell adhesion (Castillo et al, Journal of Ethnopharmacology 112, 410-414 (2007)). Pre-warmed complete M199 medium was used twice to remove non-adherent cells. A neutral red method (Fautz et al., Mutation Research 253, 173-179 (1991)) was employed to determine cell concentration. Approximately 7×10^4 viable cells were deposited in each well for adhesion.
Infection of macrophages by amastigotes was determined as follows. […] Twelve hours after infection, a solution of the compounds to be tested was added to the cultures at various concentrations and maintained at 37° C. in 5% CO2 for a further forty-eight hours more. The plates were fixed with methanol and stained with 10% Giemsa stain. The percentage of infected macrophages was determined microscopically at 100 times magnification. The number of intracellular amastigotes was determined in 300 cells. Following Delorenzi et al. Antimicrobial Agents and Chemotherapy, 45, 1349-1354 (2001)) the percentage of infection rate (% IR) of each culture was calculated as follows: % IR=100−(infection rate of the treated culture/infection rate of the untreated culture)×100.
All experiments were performed in triplicate. ANOVA was used to test for statistical significance of differences (Epi-Info, Statview student program). The total parasite burden was calculated as a mean number of amastigotes per cells multiplied by the number of infected macrophages.

[14] = system: L. peruviana LCA08; experiment: as above; conditions: Leishmania peruviana, Macrophage, read-out: IC50 L. peruviana LCA08

## C(=N/Nc1ncnc2sc3c(c12)CCCC3)/c1ccccn1 [II-21]
[1]
  GI50: 0.013 µg/mL (≈ 0.042 µM)
[2]
  GI50: 0.115 µg/mL (≈ 0.372 µM)
[3]
  GI50: 0.123 µg/mL (≈ 0.398 µM)
[4]
  GI50: 0.03 µg/mL (≈ 0.097 µM)
[5]
  GI50: 0.051 µg/mL (≈ 0.165 µM)
[6]
  GI50: 0.078 µg/mL (≈ 0.252 µM)
[7]
  GI50: 0.026 µg/mL (≈ 0.084 µM)
[8]; Mycobacterium tuberculosis, 168 h, aerobic, 7 days, H37Rv
  MIC: 44.9 µg/mL (≈ 145 µM)
[8]; VERO vs MABA MIC
  Selectivity Index H37Rv: 0.2
[9]
  Selectivity Index: 13.0
[10]
  IC50: 10.8 µg/mL (≈ 34.9 µM)
[11]
  IC50: 200 nM
[12]
  IC50: < 0.08 µg/mL
[13]
  IC50: 0.19 µg/mL (≈ 0.614 µM)
[14]
  IC50: 0.2 µg/mL (≈ 0.646 µM)

— patent US9061984B2 (University of Louisville Research Foundation, Inc., priority 2008, dated 2015)
